Data: ChEMBL document CHEMBL1649221, “Novel genetic environment of the carbapenem-hydrolyzing beta-lactamase KPC-2 among Enterobacteriaceae in China” (2009)
Converted amounts (≈) assume the structure as drawn.

Experiments:
Format in all cases: functional
Klebsiella pneumoniae [1] = test: Antimicrobial activity against Klebsiella pneumoniae PFGE clone C expressing beta-lactamase KPC-2 by Etest
Klebsiella pneumoniae [2] = test: Antimicrobial activity against Klebsiella pneumoniae PFGE clone F expressing beta-lactamase KPC-2 by Etest
Klebsiella pneumoniae [3] = test: Antimicrobial activity against Klebsiella pneumoniae PFGE clone E expressing beta-lactamase KPC-2 by Etest
Enterobacter cloacae [4] = test: Antimicrobial activity against Enterobacter cloacae expressing beta-lactamase KPC-2 by Etest
Klebsiella pneumoniae [5] = test: Antimicrobial activity against Klebsiella pneumoniae PFGE clone B expressing beta-lactamase KPC-2 by Etest
Klebsiella pneumoniae [6] = test: Antimicrobial activity against Klebsiella pneumoniae PFGE clone A expressing beta-lactamase KPC-2 by Etest
Klebsiella oxytoca [7] = test: Antimicrobial activity against Klebsiella oxytoca expressing beta-lactamase KPC-2 by Etest
Klebsiella pneumoniae [8] = test: Antimicrobial activity against Klebsiella pneumoniae PFGE clone D expressing beta-lactamase KPC-2 by Etest
Klebsiella pneumoniae [9] = test: Antimicrobial activity against Klebsiella pneumoniae PFGE clone F expressing beta-lactamase KPC-2 by Etest in presence of beta-lactamase inhibitor Tazobactam
Klebsiella pneumoniae [10] = test: Antimicrobial activity against Klebsiella pneumoniae PFGE clone E expressing beta-lactamase KPC-2 by Etest in presence of beta-lactamase inhibitor Tazobactam
Enterobacter cloacae [11] = test: Antimicrobial activity against Enterobacter cloacae expressing beta-lactamase KPC-2 by Etest in presence of beta-lactamase inhibitor Tazobactam
Klebsiella pneumoniae [12] = test: Antimicrobial activity against Klebsiella pneumoniae PFGE clone D expressing beta-lactamase KPC-2 by Etest in presence of beta-lactamase inhibitor Tazobactam
Klebsiella oxytoca [13] = test: Antimicrobial activity against Klebsiella oxytoca expressing beta-lactamase KPC-2 by Etest in presence of beta-lactamase inhibitor Tazobactam
Klebsiella pneumoniae [14] = test: Antimicrobial activity against Klebsiella pneumoniae PFGE clone C expressing beta-lactamase KPC-2 by Etest in presence of beta-lactamase inhibitor Tazobactam
Klebsiella pneumoniae [15] = test: Antimicrobial activity against Klebsiella pneumoniae PFGE clone A expressing beta-lactamase KPC-2 by Etest in presence of beta-lactamase inhibitor Tazobactam
Klebsiella pneumoniae [16] = test: Antimicrobial activity against Klebsiella pneumoniae PFGE clone B expressing beta-lactamase KPC-2 by Etest in presence of beta-lactamase inhibitor Tazobactam

Row | MIC (Klebsiella pneumoniae [9]) | MIC (Klebsiella pneumoniae [10]) | MIC (Enterobacter cloacae [11]) | MIC (Klebsiella pneumoniae [12]) | MIC (Klebsiella oxytoca [13]) | MIC (Klebsiella pneumoniae [14]) | MIC (Klebsiella pneumoniae [15]) | MIC (Klebsiella pneumoniae [16]) | Molecule | MIC (Klebsiella pneumoniae [1]) | MIC (Klebsiella pneumoniae [2]) | MIC (Klebsiella pneumoniae [3]) | MIC (Enterobacter cloacae [4]) | MIC (Klebsiella pneumoniae [5]) | MIC (Klebsiella pneumoniae [6]) | MIC (Klebsiella oxytoca [7]) | MIC (Klebsiella pneumoniae [8])
1 | – | – | – | – | – | – | – | – | C[C@@H](O)[C@H]1C(=O)N2C(C(=O)O)=C(S[C@@H]3CN[C@H](C(=O)Nc4cccc(C(=O)O)c4)C3)[C@H](C)[C@H]12 | > 32 µg/mL | > 32 µg/mL | > 32 µg/mL | > 32 µg/mL | > 32 µg/mL | > 32 µg/mL | > 16 µg/mL | > 16 µg/mL
2 | – | – | – | – | – | – | – | – | NCC[C@H](O)C(=O)N[C@@H]1C[C@H](N)[C@@H](O[C@H]2O[C@H](CN)[C@@H](O)[C@H](O)[C@H]2O)[C@H](O)[C@H]1O[C@H]1O[C@H](CO)[C@@H](O)[C@H](N)[C@H]1O [AMIKACIN] | > 1 µg/mL | 2 µg/mL (≈ 3.42 µM) | > 1 µg/mL | > 256 µg/mL | > 1 µg/mL | > 256 µg/mL | 2 µg/mL (≈ 3.42 µM) | > 256 µg/mL
3 | – | – | – | – | – | – | – | – | CO[C@@]1(NC(=O)Cc2cccs2)C(=O)N2C(C(=O)O)=C(COC(N)=O)CS[C@@H]21 [CEFOXITIN] | > 128 µg/mL | > 32 µg/mL | 32 µg/mL (≈ 74.9 µM) | > 256 µg/mL | > 128 µg/mL | > 256 µg/mL | > 256 µg/mL | > 64 µg/mL
4 | – | – | – | – | – | – | – | – | CC(C)(O/N=C(\C(=O)N[C@@H]1C(=O)N2C(C(=O)[O-])=C(C[n+]3ccccc3)CS[C@H]12)c1csc(N)n1)C(=O)O [CEFTAZIDIME] | > 256 µg/mL | > 256 µg/mL | > 32 µg/mL | > 256 µg/mL | > 128 µg/mL | > 256 µg/mL | 128 µg/mL (≈ 234 µM) | > 32 µg/mL
5 | – | – | – | – | – | – | – | – | C[C@@H](O)[C@H]1C(=O)N2C(C(=O)O)=C(SCCNC=N)C[C@H]12 [IMIPENEM ANHYDROUS] | > 32 µg/mL | > 32 µg/mL | > 16 µg/mL | > 32 µg/mL | > 16 µg/mL | > 32 µg/mL | > 32 µg/mL | > 2 µg/mL
6 | – | – | – | – | – | – | – | – | C[C@@H](O)[C@H]1C(=O)N2C(C(=O)O)=C(S[C@@H]3CN[C@H](C(=O)N(C)C)C3)[C@H](C)[C@H]12 [MEROPENEM] | > 32 µg/mL | > 32 µg/mL | > 16 µg/mL | > 32 µg/mL | > 32 µg/mL | > 32 µg/mL | > 32 µg/mL | > 2 µg/mL
7 | > 256 µg/mL | > 256 µg/mL | > 256 µg/mL | > 256 µg/mL | > 256 µg/mL | > 256 µg/mL | > 256 µg/mL | > 256 µg/mL | CCN1CCN(C(=O)N[C@@H](C(=O)N[C@@H]2C(=O)N3[C@@H]2SC(C)(C)[C@@H]3C(=O)O)c2ccccc2)C(=O)C1=O [PIPERACILLIN] | – | – | – | – | – | – | – | –
8 | – | – | – | – | – | – | – | – | CN(C)c1cc(NC(=O)CNC(C)(C)C)c(O)c2c1C[C@H]1C[C@H]3[C@H](N(C)C)C(O)=C(C(N)=O)C(=O)[C@@]3(O)C(O)=C1C2=O [TIGECYCLINE] | 0.5 µg/mL (≈ 0.854 µM) | 0.38 µg/mL (≈ 0.649 µM) | 1 µg/mL (≈ 1.71 µM) | 2 µg/mL (≈ 3.41 µM) | 0.5 µg/mL (≈ 0.854 µM) | 2 µg/mL (≈ 3.41 µM) | 2 µg/mL (≈ 3.41 µM) | 0.5 µg/mL (≈ 0.854 µM)
9 | – | – | – | – | – | – | – | – | COLISTIN | 0.5 µg/mL | 0.5 µg/mL | 0.5 µg/mL | 0.5 µg/mL | 0.5 µg/mL | 0.25 µg/mL | 1 µg/mL | 0.5 µg/mL
